These results are taken from paper PMC11963566, “A phase I, single-center, randomized, open-label, three-period crossover study to evaluate the drug–drug interaction between ZSP1273 and oseltamivir in healthy Chinese subjects” (Antimicrobial Agents and Chemotherapy, 2025).

One may read the AUC(0-t) as the area under the concentration-time curve up to a stated or last time point. For orientation: AUC means concentration integrated over time. Broadly, the AUC(0-inf) is the area under the concentration-time curve extrapolated to infinity. The Cmax is the peak of the concentration-time curve. One may read the Tmax as the time at which the peak concentration occurs. The term half-life denotes the time in which the quantity being followed falls by half. High values mean slow decline, low ones rapid decline.

The nature of one series: clinical. The conditions noted are these: human.
The conditions of series [1]: cited from earlier work.
The conditions of series [2]: cited from earlier work. This is another data set of the same source.

Consider `CCC(CC)O[C@@H]1C=C(C(=O)O)C[C@H](N)[C@H]1NC(C)=O` [Oseltamivir carboxylate, oseltamivir carboxylate], for which, for the setting “all subjects, no-effect boundary 80%–125%”, the “AUC0-∞,ss, geometric mean ratio co-administration/monotherapy” value is recorded as 87.1%. For the setting “human, in vivo”, the “AUC0-t,ss, geometric mean ratio co-administration/monotherapy” value is listed as 86.7%; the “AUC0-τ,ss, geometric mean ratio co-administration/monotherapy” value is given as 83.3%; the “AUC0-∞,ss, intra-individual coefficient of variation” value turned out to be 8.4%; the “Cmax,ss, geometric mean ratio co-administration/monotherapy” value was found to be 80.4%. The same compound came in with an exposure AUC(0-t) in the series “clinical” (in vivo, AUC0-t,ss, geometric mean) of 5080 ng·h/mL. In addition, the exposure (AUC) in “clinical” (in vivo, AUC0-τ,ss, geometric mean) amounted to 3320 ng·h/mL. This compound also gave an AUC(0-inf) in the series “clinical” (in vivo, AUC0-∞,ss, geometric mean) of 5170 ng·h/mL. The compound also had a Cmax in “clinical” (in vivo, Cmax,ss, geometric mean) of 393 ng/mL. In “clinical” (in vivo, po, Tmax,ss), the Tmax was 4 h. Moreover, the half-life in the series “clinical” (in vivo, po, t1/2,ss) is 10.3 ± 1.6 h. This compound had a k el in “clinical” (plasma, po, 75 mg) of 1.92e-05 s⁻¹. Also, the “plasma protein binding rate” value in series [1] is on record as “approximately 3%”. Also, the “fraction excreted by the kidneys” value in series [2] is on record as “more than 99%”.
